pIC50: −log10 of the molar value.
Tests used:
[1] = biological target: T1, Recombinant human His6-USP1/His6-UAF1 complex protein (Homo sapiens, UniProt O94782); assay: In vitro inhibitory activity against USP1 (Ubiquitin Rhodamine 110 fluorescence detection, 384-well plate); format: biochemical; conditions: Ub-Rho substrate, 1 hour pre-incubation, read after 30 minutes
T1 construct: His6; purchased R&D E-568-050
Description: Test Example 1: In vitro inhibitory activity against USP1 […]
Experimental object: to screen compounds with inhibitory activity against USP1 […] by a fluorescence detection method, using a 384-well plate.
Experimental materials: Recombinant human His6-USP1/His6-UAF1 complex protein (R&D, Cat. No.: E-568-050), Ubiquitin Rhodamine 110 protein (Ub-Rho) (R&D, Cat. No.: U-555-050), 384-well plate (Perkin Elmer, Cat. No.: 6007279); all compounds were dissolved in 100% DMSO to obtain 50 mM stock solutions.
• 1) Preparation of 1 × assay buffer: 1 × assay buffer (modified Tris buffer) was prepared; • 2) Dilution of compounds: the compounds were transferred to an assay plate via Echo.

[2] = system: MDA-MB-436; assay: CTG experiment for cell viability (CellTiter-Glo, 96-well plate, 7 days); format: cell-based; conditions: MDA-MB-436 cells, 7 days culture with compound
Description: Test Example 2: CTG experiment for cell viability
• 1. Object: to screen USP1 inhibitors by a CTG assay, using a 96-well plate. • 2. Materials: • The cells used were MDA-MB-436 (manufacturer: Nanjing Cobioer Biotechnology Co., Ltd.) and cultured in DMEM medium, • CTG (CellTiter-Glo® Luminescent Cell Viability Assay kit) (Promega, Cat. No.: G7572), • 96-well plate (Corning, Cat. No.: 3610). • 3. Compounds: all compounds were dissolved in 100% DMSO to obtain 50 mM stock solutions. • 4. Experimental method: • ① Plating: The cells to be tested were spread into a 96-well plate at a certain density, with 200 µL per well, and 200 µL of cell medium was added to the blank wells. […] The cell plate with the compounds was placed in an incubator at 37°C, and further cultured for 7 days prior to detection. • ④ Assay: The substrate and the buffer of CTG kit were mixed evenly. The cell plate with the compounds in Step ③ was taken out from the incubator, and left at room temperature to equilibrate for 30 minutes. The medium containing the compounds was removed from the cell plate, 100 µL of PBS and 50 µL of CTG reagent were added to each well, shaken and mixed for 3 minutes, and then incubated for 10 minutes at room temperature. The plate was read by a BIotek microplate-reader, with a parameter set to 567 CPM. • 5. Curve fitting
It was the same as that for the enzyme.

[3] = Homo sapiens, MDA-MB-436, 168 h

T1 sequence (O94782 whole entry): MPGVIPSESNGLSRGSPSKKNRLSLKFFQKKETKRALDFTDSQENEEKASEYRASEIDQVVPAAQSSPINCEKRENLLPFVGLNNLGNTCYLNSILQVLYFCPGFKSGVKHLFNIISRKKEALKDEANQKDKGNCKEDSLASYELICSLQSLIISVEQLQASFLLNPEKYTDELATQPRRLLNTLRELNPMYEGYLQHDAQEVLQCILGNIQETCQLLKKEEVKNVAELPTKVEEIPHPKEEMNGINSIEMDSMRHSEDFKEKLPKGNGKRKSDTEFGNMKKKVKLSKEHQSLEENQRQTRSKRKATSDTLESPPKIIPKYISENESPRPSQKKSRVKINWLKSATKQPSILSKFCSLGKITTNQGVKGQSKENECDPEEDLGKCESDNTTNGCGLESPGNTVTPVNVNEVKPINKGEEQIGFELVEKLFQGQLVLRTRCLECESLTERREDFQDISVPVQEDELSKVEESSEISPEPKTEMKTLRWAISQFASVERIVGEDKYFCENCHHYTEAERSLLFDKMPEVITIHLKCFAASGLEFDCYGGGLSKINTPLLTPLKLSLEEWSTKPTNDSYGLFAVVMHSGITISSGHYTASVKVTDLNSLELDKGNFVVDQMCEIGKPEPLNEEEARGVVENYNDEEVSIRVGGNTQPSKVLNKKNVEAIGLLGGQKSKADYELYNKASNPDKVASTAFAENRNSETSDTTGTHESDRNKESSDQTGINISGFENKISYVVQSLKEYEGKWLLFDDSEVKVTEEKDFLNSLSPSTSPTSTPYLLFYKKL
T1 sequence (Q8TAF3 whole entry partner): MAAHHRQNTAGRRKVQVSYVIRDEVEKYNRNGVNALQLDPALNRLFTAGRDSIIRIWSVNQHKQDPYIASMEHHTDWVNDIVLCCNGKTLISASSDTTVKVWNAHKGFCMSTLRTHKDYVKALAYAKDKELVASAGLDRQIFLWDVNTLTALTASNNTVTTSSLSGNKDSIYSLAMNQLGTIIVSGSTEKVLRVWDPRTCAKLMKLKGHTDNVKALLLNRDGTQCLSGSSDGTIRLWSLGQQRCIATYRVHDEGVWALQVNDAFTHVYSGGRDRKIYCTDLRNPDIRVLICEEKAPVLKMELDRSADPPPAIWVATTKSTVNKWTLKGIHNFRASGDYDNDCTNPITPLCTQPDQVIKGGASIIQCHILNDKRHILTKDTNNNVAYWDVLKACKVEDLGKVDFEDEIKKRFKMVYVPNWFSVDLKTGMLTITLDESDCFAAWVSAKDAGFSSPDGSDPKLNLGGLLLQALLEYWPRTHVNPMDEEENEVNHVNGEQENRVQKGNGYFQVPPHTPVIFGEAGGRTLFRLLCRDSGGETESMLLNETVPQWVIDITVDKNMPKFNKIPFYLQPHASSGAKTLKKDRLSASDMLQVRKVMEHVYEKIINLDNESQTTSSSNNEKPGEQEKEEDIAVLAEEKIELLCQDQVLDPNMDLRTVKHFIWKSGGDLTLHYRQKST

pIC50 [1] | pIC50 [2, 3] | pIC50 [2] | Structure (SMILES)
8.52 | 7.80 |  | COc1cnc(-c2c(C)cnn2C(C)C)nc1NCc1ccc(-c2nc(C(F)(F)F)cn2C)cc1 [Example 202, 2-(1-Isopropyl-4-methyl-1H-pyrazol-5-yl)-5-methoxy-N-(4-(1-methyl-4-(trifluoromethyl)-1H-imidazol-2-yl)benzyl)pyrimidin-4-amine]
7.84 | 6.61 |  | CC(C)c1ccccc1-c1ncc(O)c(NCc2ccc(-c3nc(C(F)(F)F)cn3C)cc2)n1 [Example 89, 2-(2-Isopropylphenyl)-4-((4-(1-methyl-4-(trifluoromethyl)-1H-imidazol-2-yl)benzyl)amino)pyrimidin-5-ol]
8.00 | 6.56 |  | CC(C)Oc1cnc(-c2ccccc2C(C)C)nc1N(C)Cc1ccc(-c2nc(C(F)(F)F)cn2C)cc1 [Example 71, 5-Isopropoxy-2-(2-isopropylphenyl)-N-methyl-N-(4-(1-methyl-4-(trifluoromethyl)-1H-imidazol-2-yl)benzyl)pyrimidin-4-amine]
7.89 | 7.64 |  | COc1ncnc(C2CC2)c1-c1ncc(Cl)c(NCc2ccc(-c3nc(C(F)(F)F)cn3CF)cc2)n1 [Example 126, 5-Chloro-4'-cyclopropyl-N-(4-(1-(fluoromethyl)-4-(trifluoromethyl)-1H-imidazol-2-yl)benzyl)-6'-methoxy-[2,5'-bipyrimidin]-4-amine]
8.13 | 8.22 |  | COc1cnn(C(C)C)c1-c1nc(NCc2ccc(-n3nc(C(F)(F)F)cc3C)cc2)c2occc2n1 [Example 182, 2-(1-Isopropyl-4-methoxy-1H-pyrazol-5-yl)-N-(4-(5-methyl-3-(trifluoromethyl)-1H-pyrazol-1-yl)benzyl)furo[3,2-d]pyrimidin-4-amine]
8.06 | 7.86 |  | COc1cnc(-c2c(OC)ncnc2C2CC2)nc1NCC12CCC(c3nc(C(F)(F)F)cn3C)(CC1)CC2 [Example 104, 4'-Cyclopropyl-5,6'-dimethoxy-N-((4-(1-methyl-4-(trifluoromethyl)-1H-imidazol-2-yl)bicyclo[2.2.2]octan-1-yl)methyl)-[2,5'-bipyrimidin]-4-amine]
8.29 | 7.36 |  | Cc1cc(C(F)(F)F)nn1-c1ccc(CNc2nc(-c3ccccc3C3CC3)nc3ccoc23)cc1 [Example 174, 2-(2-Cyclopropylphenyl)-N-(4-(5-methyl-3-(trifluoromethyl)-1H-pyrazol-1-yl)benzyl)furo[3,2-d]pyrimidin-4-amine]
8.68 | 7.91 |  | COc1cnc(-c2cccnc2C(C)C)nc1NCc1ccc(-n2nc(C(F)(F)F)cc2C)cc1 [Example 158, 2-(2-Isopropylpyridin-3-yl)-5-methoxy-N-(4-(5-methyl-3-(trifluoromethyl)-1H-pyrazol-1-yl)benzyl)pyrimidin-4-amine]
8.36 | 7.80 |  | COc1cc(-n2nc(C(F)(F)F)cc2C)ccc1CNc1nc(-c2c(OC)ncnc2C2CC2)ncc1OC [Example 102, 4'-Cyclopropyl-5,6'-dimethoxy-N-(2-methoxy-4-(5-methyl-3-(trifluoromethyl)-1H-pyrazol-1-yl)benzyl)-[2,5'-bipyrimidin]-4-amine]
 | 6.92 |  | COc1ncnc(C2CC2)c1-c1nc(NCc2ccc(-c3ccccn3)cc2)c2occc2n1 [Example 34, 2-(4-Cyclopropyl-6-methoxypyrimidin-5-yl)-N-(4-(pyridin-2-yl)benzyl)furo[3,2-d]pyrimidin-4-amine]
 | 8.74 |  | COc1ncnc(C2CC2)c1-c1ncc2c(n1)N(Cc1ccc(-c3nc(C(F)(F)F)cn3C)cc1)CCO2 [Example 21, 2-(4-Cyclopropyl-6-methoxypyrimidin-5-yl)-8-(4-(1-methyl-4-(trifluoromethyl)-1H-imidazol-2-yl)benzyl)-7,8-dihydro-6H-pyrimido[5,4-b][1,4]oxazine]
 |  | 7.61 | COc1cnc(-c2c(OC)ncnc2C2CC2)nc1NCC1CCC(c2nc(C(F)(F)F)cn2C(C)C)CC1 [Example S25, 4'-Cyclopropyl-N-((1R,4R)-4-(1-isopropyl-4-(trifluoromethyl)-1H-imidazol-2-yl)cyclohexyl)methyl)-5,6'-dimethoxy-[2,5'-bipyrimidin]-4-amine]
 |  | 9.52 | COc1cnc(-c2c(OC)ncnc2C2CC2)nc1N(C)C[C@H]1CC[C@H](c2nc(C(F)(F)F)cn2C2CC2)CC1 [Example S28, 4'-Cyclopropyl-N-(((1R,4R)-4-(1-cyclopropyl-4-(trifluoromethyl)-1H-imidazol-2-yl)cyclohexyl)methyl)-5,6'-dimethoxy-N-methyl-[2,5'-bipyrimidin]-4-amine]
 | 7.23 |  | Cn1cc(C(F)(F)F)nc1-c1ccc(CNc2nc(-c3cccnc3C3CC3)ncc2OC(F)F)cc1 [Example 156, 2-(2-Cyclopropylpyridin-3-yl)-5-(difluoromethoxy)-N-(4-(1-methyl-4-(trifluoromethyl)-1H-imidazol-2-yl)benzyl)pyrimidin-4-amine]
7.12 |  |  | COc1cnc(-c2c(OC)cnn2C(C)C)nc1N(C)CC1CCN(c2ccccn2)CC1 [Example 177, 2-(1-Isopropyl-4-methoxy-1H-pyrazol-5-yl)-5-methoxy-N-methyl-N-((1-(pyridin-2-yl)piperidin-4-yl)methyl)pyrimidin-4-amine]
6.96 |  |  | COc1cnc(-c2c(OC)cnn2C(C)C)nc1NCc1ccc(-c2ccccn2)cc1 [Example 178, 2-(1-Isopropyl-4-methoxy-1H-pyrazol-5-yl)-5-methoxy-N-(4-(pyridin-2-yl)benzyl)pyrimidin-4-amine]
6.99 |  |  | Cc1cc(C(F)(F)F)nn1-c1ccc(CNc2nc(-c3ccccc3C(C)C)ncc2O)cc1 [Example 90, 2-(2-Isopropylphenyl)-4-((4-(5-methyl-3-(trifluoromethyl)-1H-pyrazol-1-vl)benzyl)amino)pyrimidin-5-ol]
6.44 |  |  | COc1cnc(-c2c(C)ncn2C(C)C)nc1NCc1ccc(-c2nc(C(F)(F)F)cn2C)cc1 [Example 147, 2-(1-Isopropyl-4-methyl-1H-imidazol-5-yl)-5-methoxy-N-(4-(1-methyl-4-(trifluoromethyl)-1H-imidazol-2-yl)benzyl)pyrimidin-4-amine]
6.25 |  |  | COc1ncnc(C2CC2)c1-c1ncc2c(n1)N(CC1CCN(c3ccccn3)CC1)CCO2 [Example 10, 2-(4-Cyclopropyl-6-methoxypyrimidin-5-yl)-8-((1-(pyridin-2-yl)piperidin-4-yl)methyl)-7,8-dihydro-6H-pyrimido[5,4-b][1,4]oxazine]
6.61 |  |  | COc1cnc(-c2cncnc2C2CC2)nc1NCc1ccc(-c2nc(C(F)F)cn2C)cc1 [Example 195, 4'-Cyclopropyl-N-(4-(4-(difluoromethyl)-1-methyl-1H-imidazol-2-yl)benzyl)-5-methoxy-[2,5'-bipyrimidin]-4-amine]
8.46 |  |  | [2H]C([2H])([2H])Oc1ncnc(C2CC2)c1-c1ncc(OC)c(N(C)CC23CCC(c4nc(C(F)(F)F)cn4C)(CC2)CC3)n1 [Example S9, 4'-Cyclopropyl-5-methoxy-6'-(methoxy-D3)-N-methyl-N-((4-(1-methyl-4-(trifluoromethyl)-1H-imidazol-2-yl)bicyclo[2.2.2]oct-1-yl)methyl)-[2,5'-bipyrimidin]-4-amine]
 | 6.50 |  | COc1ncnc(C2CC2)c1-c1ncc2c(n1)N(Cc1ccc(-c3nc(C(F)(F)F)cn3C)cc1)C(=O)CO2 [Example 18, 2-(4-Cyclopropyl-6-methoxypyrimidin-5-yl)-8-(4-(1-methyl-4-(trifluoromethyl)-1H-imidazol-2-yl)benzyl)-6H-pyrimido[5,4-b][1,4]oxazin-7(8H)-one]
7.57 |  |  | COc1cnn(C(C)C)c1-c1nc(NCc2ccc(-c3ccccn3)cc2)c2occc2n1 [Example 181, 2-(1-Isopropyl-4-methoxy-1H-pyrazol-5-yl)-N-(4-(pyridin-2-yl)benzyl)furo[3,2-d]pyrimidin-4-amine]
7.29 |  |  | COc1ncnc(C2CC2)c1-c1nc(NCc2ccc(-c3ccccn3)cc2)c2[nH]ccc2n1 [Example 37, 2-(4-Cyclopropyl-6-methoxypyrimidin-5-yl)-N-(4-(pyridin-2-yl)benzyl)-5H-pyrrolo[3,2-d]pyrimidin-4-amine]
7.59 |  |  | COc1cnc(-c2ccccc2C(C)C)nc1N(C)Cc1ccc(-c2ccccn2)cc1 [Example 1, 2-(2-isopropylphenyl)-5-methoxy-N-methyl-N-(4-(pyridin-2-yl)benzyl)pyrimidin-4-amine]

Structure (SMILES) | pIC50 [1] | pIC50 [2, 3] | pIC50 [2]
COc1ncnc(C2CC2)c1-c1nc(NCc2ccc(OC3CC(OC)C3)cc2)c2occc2n1 (centres unmarked) [Example 118, 2-(4-Cyclopropyl-6-methoxypyrimidin-5-yl)-N-(4-(3-methoxycyclobutoxy)benzyl)furo[3,2-d]pyrimidin-4-amine] | 7.24 |  | 

Source: patent EP4741386A1 (Jiangsu Yahong Meditech Co., Ltd., priority 2023, dated 2025)
